{
  "source": "patent US8802720B2",
  "about": "“Acylamino-substituted fused cyclopentanecarboxylic acid derivatives and their use as pharmaceuticals” (SANOFI, priority 2008, dated 2014)",
  "data": [
    {"target": "human Edg-2 receptor (LPA1 receptor) (Homo sapiens, UniProt Q92633)", "sequence (Q92633 whole entry)": "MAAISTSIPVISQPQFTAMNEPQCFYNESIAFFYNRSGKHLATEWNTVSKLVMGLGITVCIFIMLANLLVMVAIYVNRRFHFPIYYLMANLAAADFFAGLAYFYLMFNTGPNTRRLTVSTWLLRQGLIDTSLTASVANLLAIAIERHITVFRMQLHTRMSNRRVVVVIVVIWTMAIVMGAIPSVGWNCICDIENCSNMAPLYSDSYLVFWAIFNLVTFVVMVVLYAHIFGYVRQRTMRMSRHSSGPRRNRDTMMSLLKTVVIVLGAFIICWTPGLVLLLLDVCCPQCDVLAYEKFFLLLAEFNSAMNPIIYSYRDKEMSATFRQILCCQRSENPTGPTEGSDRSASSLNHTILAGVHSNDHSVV", "assay": "Edg-2 receptor inhibition by FLIPR calcium fluorescence measurement (LPA-mediated calcium liberation)", "format": "cell-based", "settings": "CHO cells stably overexpressing human Edg-2 receptor; LPA 18:1 100 nM; fluo-4 fluorescence; triplicate; read-out: Inhibitory concentrations IC50 for inhibition of the Edg-2 receptor", "how_it_was_run": "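CHO cells stably overexpressing human Edg-2 were fluo-4 loaded and pre-incubated ~5 min with compound (≤0.3% DMSO) in HBSS/HEPES/probenecid, pH 7.5. Then LPA 18:1 at 100 nM final was added. Peak calcium fluorescence over ~3 min, baseline-corrected versus DMSO, gave % inhibition in triplicate and IC50.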", "units": {"IC50": "nM"}, "values": [
      {"smiles": "COc1ccc(C(=O)NC2(C(=O)O)Cc3ccccc3C2)cc1-c1cccc(NS(=O)(=O)N(C)C)c1", "note": "[Example 203]", "IC50": "< 100"},
      {"smiles": "COc1ccc(C(=O)NC2(C(=O)O)Cc3ccccc3C2)cc1OCCc1cc(F)ccc1F", "note": "[Example 204, 2-{3-[2-(2,5-Difluoro-phenyl)-ethoxy]-4-methoxy-benzoylamino}-indane-2-carboxylic acid]", "IC50": "< 100"},
      {"smiles": "CCc1ccc(CCOc2cc(C(=O)NC3(C(=O)O)Cc4ccccc4C3)ccc2OC)nc1", "note": "[Example 205, 2-{3-[2-(5-Ethyl-pyridin-2-yl)-ethoxy]-4-methoxy-benzoylamino}-indane-2-carboxylic acid]", "IC50": "1000 to 30000"},
      {"smiles": "COc1ccc(C(=O)NC2(C(=O)O)Cc3ccccc3C2)cc1OCCc1scnc1C", "note": "[Example 206, 2-{4-Methoxy-3-[2-(4-methyl-thiazol-5-yl)-ethoxy]-benzoylamino}-indane-2-carboxylic acid]", "IC50": "1000 to 30000"},
      {"smiles": "COc1ccc(C(=O)NC2(C(=O)O)Cc3nccnc3C2)cc1OCCc1cccc(C)c1", "note": "[Example 207, 6-[4-Methoxy-3-(2-m-tolyl-ethoxy)-benzoylamino]-6,7-dihydro-5H-cyclopentapyrazine-6-carboxylic acid]", "IC50": "1000 to 30000"},
      {"smiles": "COc1ncc(C(=O)NC2(C(=O)O)Cc3ccccc3C2)cc1OCCc1cccc(C)c1", "note": "[Example 208, 2-{[6-Methoxy-5-(2-m-tolyl-ethoxy)-pyridine-3-carbonyl]-amino}-indane-2-carboxylic acid]", "IC50": "< 100"},
      {"smiles": "COc1ccc(C(=O)NC2(C(=O)O)Cc3ccccc3C2C)cc1OCCc1cccc(C)c1", "note": "(centres unmarked) [Example 209, 2-[4-Methoxy-3-(2-m-tolyl-ethoxy)-benzoylamino]-1-methyl-indane-2-carboxylic acid]", "IC50": "< 100"},
      {"smiles": "COc1ccc(C(=O)NC2(C(=O)O)Cc3ccccc3C2)cc1OCCc1cccc(C(C)(CO)CO)c1", "note": "[Example 210, 2-(3-{2-[3-(2-Hydroxy-1-hydroxymethyl-1-methyl-ethyl)-phenyl]-ethoxy}-4-methoxy-benzoylamino)-indane-2-carboxylic acid]", "IC50": "100 to 1000"},
      {"smiles": "COc1ccc(C(=O)NC2(C(=O)O)CC3CCCCC3C2)cc1OCCc1cccc(C)c1", "note": "(centres unmarked) [Example 211, 2-[4-Methoxy-3-(2-m-tolyl-ethoxy)-benzoylamino]-octahydro-indene-2-carboxylic acid]", "IC50": "< 100"},
      {"smiles": "COc1ccc(C(=O)NC2(C(=O)O)Cc3ccccc3C2)cc1OCC(F)(F)c1cccc(Cl)c1", "note": "[Example 212, 2-{3-[2-(3-Chloro-phenyl)-2,2-difluoro-ethoxy]-4-methoxy-benzoylamino}-indane-2-carboxylic acid]", "IC50": "< 100"},
      {"smiles": "COc1ccc(C(=O)NC2(C(=O)O)Cc3ccccc3C2)cc1OCC(F)(F)c1ccccc1", "note": "[Example 213, 2-[3-(2,2-Difluoro-2-phenyl-ethoxy)-4-methoxy-benzoylamino]-indane-2-carboxylic acid]", "IC50": "< 100"},
      {"smiles": "COc1ccc(C(=O)NC2(C(=O)O)Cc3c(F)ccc(F)c3C2)cc1OCCc1cccc(C)c1", "note": "[Example 214, 4,7-Difluoro-2-[4-methoxy-3-(2-m-tolyl-ethoxy)-benzoylamino]-indane-2-carboxylic acid]", "IC50": "< 100"},
      {"smiles": "COc1ccc(C(=O)NC2(C(=O)O)Cc3cccc(F)c3C2)cc1OCCc1cccc(C)c1", "note": "(centres unmarked) [Example 215, 4-Fluoro-2-[4-methoxy-3-(2-m-tolyl-ethoxy)-benzoylamino]-indane-2-carboxylic acid]", "IC50": "< 100"},
      {"smiles": "COc1ccc(C(=O)NC2(C(=O)O)Cc3cccc(C)c3C2)cc1OCCc1cccc(C)c1", "note": "(centres unmarked) [Example 216, 2-[4-Methoxy-3-(2-m-tolyl-ethoxy)-benzoylamino]-4-methyl-indane-2-carboxylic acid]", "IC50": "< 100"},
      {"smiles": "COc1ccc(C(=O)NC2(C(=O)O)Cc3cccc(Cl)c3C2)cc1OCCc1cccc(C)c1", "note": "(centres unmarked) [Example 217, 4-Chloro-2-[4-methoxy-3-(2-m-tolyl-ethoxy)-benzoylamino]-indane-2-carboxylic acid]", "IC50": "< 100"},
      {"smiles": "COc1ccc(C(=O)NC2(C(=O)O)Cc3ccc(C#N)cc3C2)cc1OCCc1cccc(C)c1", "note": "(centres unmarked) [Example 218, 5-Cyano-2-[4-methoxy-3-(2-m-tolyl-ethoxy)-benzoylamino]-indane-2-carboxylic acid]", "IC50": "< 100"},
      {"smiles": "COc1ccc(C(=O)NC2(C(=O)O)Cc3ccc(C(N)=O)cc3C2)cc1OCCc1cccc(C)c1", "note": "(centres unmarked) [Example 219, 5-Carbamoyl-2-[4-methoxy-3-(2-m-tolyl-ethoxy)-benzoylamino]-indane-2-carboxylic acid]", "IC50": "1000 to 30000"},
      {"smiles": "COc1ncc(C(=O)NC2(C(=O)O)Cc3ccccc3C2)cc1-c1cccc(C(C)C)c1", "note": "[Example 221, 2-{[5-(3-Isopropyl-phenyl)-6-methoxy-pyridine-3-carbonyl]-amino}-indane-2-carboxylic acid]", "IC50": "< 100"},
      {"smiles": "COc1ncc(C(=O)NC2(C(=O)O)Cc3ccccc3C2)cc1-c1cccc(SC)c1", "note": "[Example 222, 2-{[6-Methoxy-5-(3-methylsulfanyl-phenyl)-pyridine-3-carbonyl]-amino}-indane-2-carboxylic acid]", "IC50": "< 100"},
      {"smiles": "COc1ncc(C(=O)NC2(C(=O)O)Cc3ccccc3C2)cc1-c1cccc(Cl)c1", "note": "[Example 223]", "IC50": "< 100"},
      {"smiles": "COc1ncc(C(=O)NC2(C(=O)O)Cc3ccccc3C2)cc1-c1cccc(C)c1", "note": "[Example 224, 2-{[6-methoxy-5-(3-methyl-phenyl)-pyridine-3-carbonyl]-amino}-indane-2-carboxylic acid]", "IC50": "< 100"},
      {"smiles": "COc1ncc(C(=O)NC2(C(=O)O)Cc3ccccc3C2)cc1-c1ccccc1Cl", "note": "[Example 225]", "IC50": "100 to 1000"},
      {"smiles": "COc1ncc(C(=O)NC2(C(=O)O)Cc3ccccc3C2)cc1-c1ccc(Cl)cc1", "note": "[Example 226]", "IC50": "< 100"},
      {"smiles": "COc1ncc(C(=O)NC2(C(=O)O)Cc3ccccc3C2)cc1-c1cccc(Cl)c1Cl", "note": "[Example 228]", "IC50": "< 100"},
      {"smiles": "COc1ncc(C(=O)NC2(C(=O)O)Cc3ccccc3C2)cc1-c1cc(F)c(F)c(F)c1", "note": "[Example 229]", "IC50": "< 100"},
      {"smiles": "COc1ncc(C(=O)NC2(C(=O)O)Cc3ccccc3C2)cc1-c1cccc(C(F)(F)F)c1F", "note": "[Example 230]", "IC50": "< 100"},
      {"smiles": "COc1ncc(C(=O)NC2(C(=O)O)Cc3ccccc3C2)cc1-c1cccc(NS(=O)(=O)N(C)C)c1", "note": "[Example 231]", "IC50": "< 100"},
      {"smiles": "CCSc1cccc(-c2cc(C(=O)NC3(C(=O)O)Cc4ccccc4C3)cnc2OC)c1", "note": "[Example 233]", "IC50": "< 100"},
      {"smiles": "COc1ncc(C(=O)NC2(C(=O)O)Cc3ccccc3C2)cc1-c1cccc(OC(F)(F)F)c1", "note": "[Example 234]", "IC50": "< 100"},
      {"smiles": "COc1ncc(C(=O)NC2(C(=O)O)Cc3ccccc3C2)cc1-c1cc(Cl)cc(C(F)(F)F)c1", "note": "[Example 235]", "IC50": "< 100"},
      {"smiles": "COc1ncc(C(=O)NC2(C(=O)O)Cc3ccccc3C2)cc1-c1cccc(C#N)c1", "note": "[Example 236]", "IC50": "< 100"},
      {"smiles": "CCS(=O)(=O)c1cccc(-c2cc(C(=O)NC3(C(=O)O)Cc4ccccc4C3)cnc2OC)c1", "note": "[Example 237, 2-{[5-(3-Ethanesulfonyl-phenyl)-6-methoxy-pyridine-3-carbonyl]-amino}-indane-2-carboxylic acid]", "IC50": "100 to 1000"},
      {"smiles": "COc1ccc(C(=O)NC2(C(=O)O)Cc3ccccc3C2)cc1Oc1ccccc1C", "note": "[Example 238, 2-(4-Methoxy-3-o-tolyloxy-benzoylamino)-indane-2-carboxylic acid]", "IC50": "100 to 1000"},
      {"smiles": "COc1ccc(C(=O)NC2(C(=O)O)Cc3ccccc3C2)cc1Oc1cccc(C)c1", "note": "[Example 239, 2-(4-Methoxy-3-m-tolyloxy-benzoylamino)-indane-2-carboxylic acid]", "IC50": "1000 to 30000"},
      {"smiles": "COc1ccc(C(=O)NC2(C(=O)O)Cc3ccccc3C2)cc1C(=O)c1ccccc1C", "note": "[Example 240, 2-[4-Methoxy-3-(2-methyl-benzoyl)-benzoylamino]-indane-2-carboxylic acid]", "IC50": "1000 to 30000"},
      {"smiles": "COc1ccc(C(=O)NC2(C(=O)O)Cc3ccccc3C2)cc1C(O)c1ccccc1C", "note": "(centres unmarked) [Example 241, 2-[3-(Hydroxy-o-tolyl-methyl)-4-methoxy-benzoylamino]-indane-2-carboxylic acid]", "IC50": "1000 to 30000"},
      {"smiles": "COc1ccc(C(=O)NC2(C(=O)O)Cc3ccccc3C2)cc1Cc1ccccc1C", "note": "[Example 242, 2-[4-Methoxy-3-(2-methyl-benzyl)-benzoylamino]-indane-2-carboxylic acid]", "IC50": "100 to 1000"},
      {"smiles": "COc1ccc(C(=O)NC2(C(=O)O)Cc3ccccc3C2)cc1Cc1ccccc1", "note": "[Example 243, 2-[4-Methoxy-3-benzyl-benzoylamino]-indane-2-carboxylic acid]", "IC50": "1000 to 30000"},
      {"smiles": "COc1ccc(C(=O)NC2(C(=O)O)Cc3ccccc3C2)cc1Cc1cccc(C)c1", "note": "[Example 244, 2-[4-Methoxy-3-(3-methyl-benzyl)-benzoylamino]-indane-2-carboxylic acid]", "IC50": "100 to 1000"},
      {"smiles": "COc1ccc(C(=O)NC2(C(=O)O)Cc3ccccc3C2)cc1Cc1ccc(C)cc1", "note": "[Example 245, 2-[4-Methoxy-3-(4-methyl-benzyl)-benzoylamino]-indane-2-carboxylic acid]", "IC50": "< 100"},
      {"smiles": "COc1ccc(C(=O)NC2(C(=O)O)Cc3ccccc3C2)cc1OCCc1cccc(CCN)c1", "note": "[Example 246, 2-(3-{2-[3-(2-Amino-ethyl)-phenyl]-ethoxy}-4-methoxy-benzoylamino)-indane-2-carboxylic acid]", "IC50": "1000 to 30000"},
      {"smiles": "COc1ccc(C(=O)NC2(C(=O)O)Cc3ccccc3C2)cc1OCCc1cccc(CCNC(C)=O)c1", "note": "[Example 247, 2-(3-{2-[3-(2-Acetylamino-ethyl)-phenyl]-ethoxy}-4-methoxy-benzoylamino)-indane-2-carboxylic acid]", "IC50": "100 to 1000"},
      {"smiles": "COc1ccc(C(=O)NC2(C(=O)O)Cc3ccccc3C2)cc1OCCc1cccc(CC(N)=O)c1", "note": "[Example 248, 2-{3-[2-(3-Carbamoylmethyl-phenyl)-ethoxy]-4-methoxy-benzoylamino}-indane-2-carboxylic acid]", "IC50": "< 100"},
      {"smiles": "COc1ccc(C(=O)NC2(C(=O)O)Cc3ccccc3C2)cc1OCCc1cccc(CC(C)(C)O)c1", "note": "[Example 249, 2-(3-{2-[3-(2-Hydroxy-2-methyl-propyl)-phenyl]-ethoxy}-4-methoxy-benzoylamino)-indane-2-carboxylic acid]", "IC50": "< 100"}
    ]}
  ]
}
